Assay [1] has as its target T1, S1P1 receptor (S1P1 expressing RH7777 membranes) (Homo sapiens, UniProt P21453).
T1 construct: expressed in transfected cells; host or cells: RH7777 cells (membranes)
Description: S1P1 GTPγS assay. The class given is biochemical. Particulars: tested in one of the above S1P1 assays (two GTPγS formats). Put shortly:
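Membranes from RH7777 cells expressing human S1P1 (1.5 μg/well) precoupled 30 min on ice to WGA SPA beads in 20 mM HEPES pH 7.4, 10 mM MgCl2, 100 mM NaCl, with 10 μM GDP and 90 μg/ml saponin. [35S]-GTPγS 0.5 nM final added with compound; SPA signal read immediately.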

The target of assay [2] is T2, S1P1 (PathHunter CHO-K1 EDG1 β-Arrestin cell line) (Homo sapiens, UniProt P21453).
T2 construct: host or cells: PathHunter CHO-K1 EDG1 β-Arrestin cell line
T2 sequence (P21453 whole entry): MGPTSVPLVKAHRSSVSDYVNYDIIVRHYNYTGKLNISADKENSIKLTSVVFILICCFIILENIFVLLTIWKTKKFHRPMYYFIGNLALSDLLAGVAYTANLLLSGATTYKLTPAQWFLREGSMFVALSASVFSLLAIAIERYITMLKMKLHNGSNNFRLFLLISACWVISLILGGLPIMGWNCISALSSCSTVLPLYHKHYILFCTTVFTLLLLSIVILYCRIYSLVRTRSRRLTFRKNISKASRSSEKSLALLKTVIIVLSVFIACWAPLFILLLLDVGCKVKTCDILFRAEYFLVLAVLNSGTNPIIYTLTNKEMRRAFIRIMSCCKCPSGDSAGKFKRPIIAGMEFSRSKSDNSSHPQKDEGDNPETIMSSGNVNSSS
T2 sequence (P32121 whole entry partner): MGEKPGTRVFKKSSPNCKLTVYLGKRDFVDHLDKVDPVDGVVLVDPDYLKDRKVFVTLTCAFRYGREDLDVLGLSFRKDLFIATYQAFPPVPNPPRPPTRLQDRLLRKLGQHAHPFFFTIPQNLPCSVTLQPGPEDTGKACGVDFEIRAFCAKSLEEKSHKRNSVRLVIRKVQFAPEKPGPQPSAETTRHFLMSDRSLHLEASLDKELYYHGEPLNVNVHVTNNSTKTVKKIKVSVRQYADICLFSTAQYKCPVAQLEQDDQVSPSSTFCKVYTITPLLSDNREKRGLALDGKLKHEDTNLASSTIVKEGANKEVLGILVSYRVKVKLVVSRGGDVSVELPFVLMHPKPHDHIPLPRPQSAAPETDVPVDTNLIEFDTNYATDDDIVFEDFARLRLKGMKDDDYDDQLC
Put plainly: S1P-1 β-Arrestin recruitment assay. The format is cell-based. Particulars: CHO-K1 EDG1 β-Arrestin cells, chemi-luminescence. The protocol:
S1P-1 β-Arrestin Recruitment Assay
β-Arrestin recruitment assays were carried out using the PathHunter CHO-K1 EDG1
β-Arrestin cell line (DiscoveRx Corporation) in a chemi-luminescence detection assay. This cell line stably expresses β-Arrestin 2 and S1P1 fused to complementing portions of β-galactosidase (‘EA’ and ‘pro-link’, respectively) which associate upon Arrestin recruitment to form functional β-galactosidase enzyme.
Cells were grown to 80% confluency in Growth Medium (F12 nutrient HAMS supplemented with 10% heat-inactivated USA FBS, 1% L-glutamax, 800 μg/ml Geneticin and 300 μg/ml Hygromycin). Cells were harvested from the flask using Enzyme Free Cell Dissociation Buffer (Gibco) and washed from flasks with Optimem solution (Gibco). Cells were then centrifuged at 1000 rpm for 2-3 min and resuspended in Assay Buffer (Prepared from Sigma kit H1387 supplemented with 20 ml/L HEPES, 4.7 ml/L NaHCO3, 0.1% pluronic acid F-68 solution, 0.1% BSA and adjusted to pH 7.4 using sodium hydroxide at 1×10^6 cells/ml. Cells were dispensed into assay plates containing compounds (100n1/well of a solution of test compound in 100% DMSO) at 1×10^4 cells/well and incubated at 37° C./5% CO2 for 90 min followed by 15 min at room temperature. 5 μl detection mix (1 part Galacton Star, 5 parts Emerald II, 19 parts Assay Buffer; DiscoveRx) were added per well and the plates incubated at room temperature for 60 min. Luminescence was quantified using a Viewlux plate reader.
A general note: Recruitment of arrestin is a read-out of receptor activation apart from second messengers.

The results in this text go back to patent US20120101083A1, “S1P1 AGONISTS COMPRISING A BICYCLIC N-CONTAINING RING” (GLAXO GROUP LIMITED, priority 2009, published 2012).

Structures can show the parent of a compound that is named as a salt. Bounds are passed on as bounds.

T1 sequence (P21453 whole entry): as the sequence (P21453 whole entry) above

Usually EC50 stands for the midpoint of the concentration-response curve. In the case of `CC(C)Oc1ccc(-c2nc(-c3ccc4c(c3)CCN(C[C@H](O)CO)CC4)no2)cc1C#N` [Example 72, 5-(3-{3-[(2S)-2,3-dihydroxypropyl]-2,3,4,5-tetrahydro-1H-3-benzazepin-7-yl}-1,2,4-oxadiazol-5-yl)-2-[(1-methylethyl)oxy]benzonitrile], the values for the EC50 in assay [1] and in assay [2] were at most 100 nM and at most 10 nM, respectively.
The matching figures for `CC(C)Oc1ccc(-c2nc(-c3ccc4c(c3)CCN(C(=O)CN)CC4)no2)cc1C#N` [Example 48, 5-[3-(3-glycyl-2,3,4,5-tetrahydro-1H-3-benzazepin-7-yl)-1,2,4-oxadiazol-5-yl]-2-[(1-methylethyl)oxy]benzonitrile trifluoroacetate]: at most 10 nM and at most 10 nM.
As to `CC(C)Oc1ccc(-c2nc(-c3ccc4c(c3)CCN(CC(=O)N[C@H](C)CO)CC4)no2)cc1C#N` [Example 78, 2-[7-(5-{3-cyano-4-[(1-methylethyl)oxy]phenyl}-1,2,4-oxadiazol-3-yl)-1,2,4,5-tetrahydro-3H-3-benzazepin-3-yl]-N-(1R)-2-hydroxy-1-methylethyl]acetamide hydrochloride], the values for the EC50 in assay [1] and in assay [2] were at most 1000 nM and at most 100 nM, respectively.
As for `Cc1c(-c2noc(-c3ccc(OC(C)C)c(C#N)c3)n2)ccc2c1CCN(C(=O)[C@@](C)(N)CO)C2` [Example 82, 2-[(1-methylethyl)oxy]-5-{3-[5-methyl-2-(2-methyl-L-seryl)-1,2,3,4-tetrahydro-6-isoquinolinyl]-1,2,4-oxadiazol-5-yl}benzonitrile], the concentration for a half-maximal effect (EC50) in assay [1] was at most 1000 nM; in assay [2], at most 100 nM.
`CC(C)Oc1ccc(-c2nc(-c3ccc4c(c3)CCN(CC(=O)NC[C@H](C)O)CC4)no2)cc1C#N` [Example 75, 2-[7-(5-{3-cyano-4-[(1-methylethyl)oxy]phenyl}-1,2,4-oxadiazol-3-yl)-1,2,4,5-tetrahydro-3H-3-benzazepin-3-yl]-N-[(2S)-2-hydroxypropyl]acetamide hydrochloride]: the half-maximal effective concentration (EC50) was at most 100 nM in assay [1] and at most 10 nM in assay [2].
In the same order, the values of `CC(C)Oc1ccc(-c2nc(-c3ccc4c(c3)CCN(CC(=O)NCCO)CC4)no2)cc1C#N` [Example 111, 2-[7-(5-{3-cyano-4-[(1-methylethyl)oxy]phenyl}-1,2,4-oxadiazol-3-yl)-1,2,4,5-tetrahydro-3H-3-benzazepin-3-yl]-N-(2-hydroxyethyl)acetamide hydrochloride] are at most 100 nM and at most 10 nM.
Consider `CCNC(=O)NCCN1CCc2ccc(-c3noc(-c4ccc(OC(C)C)c(C#N)c4)n3)cc2CC1` [Example 105, N-{2-[7-(5-{3-cyano-4-[(1-methylethyl)oxy]phenyl}-1,2,4-oxadiazol-3-yl)-1,2,4,5-tetrahydro-3H-3-benzazepin-3-yl]ethyl}-N′-ethylurea], for which the EC50 was at most 10 nM in assay [1] and at most 100 nM in assay [2].
In the same order, the values of `Cc1c(-c2noc(-c3ccc(OC(C)C)c(C#N)c3)n2)ccc2c1CCN(CC(=O)NC[C@H](O)CO)C2` [Example 124, 2-[6-(5-{3-cyano-4-[(1-methylethyl)oxy]phenyl}-1,2,4-oxadiazol-3-yl)-5-methyl-3,4-dihydro-2(1H)-isoquinolinyl]-N-[(2S)-2,3-dihydroxypropyl]acetamide hydrochloride] are at most 100 nM and at most 10 nM.
In the case of `Cc1c(-c2noc(-c3ccc(OC(C)C)c(C#N)c3)n2)ccc2c1CCN(C(=O)CN)C2` [Example 42, 5-[3-(2-Glycyl-5-methyl-1,2,3,4-tetrahydro-6-isoquinolinyl)-1,2,4-oxadiazol-5-yl]-2-[(1-methylethyl)oxy]benzonitrile hydrochloride], the EC50 in assay [1] was at most 100 nM; in assay [2] it was at most 10 nM.
In the same order, the values of `CC(C)Oc1ccc(-c2nc(-c3ccc4c(c3)CCN(C(=O)CNC[C@H](O)CO)CC4)no2)cc1C#N` [Example 196, 5-[3-(3-{N-[(2S)-2,3-dihydroxypropyl]glycyl}-2,3,4,5-tetrahydro-1H-3-benzazepin-7-yl)-1,2,4-oxadiazol-5-yl]-2-[(1-methylethyl)oxy]benzonitrile hydrochloride] are at most 1000 nM and at most 100 nM.
In the same order, the values of `Cc1c(-c2noc(-c3ccc(OC(C)C)c(C#N)c3)n2)ccc2c1CCN(CC(=O)NC[C@H](C)O)CC2` [Example 148, 2-[7-(5-{3-cyano-4-[(1-methylethyl)oxy]phenyl}-1,2,4-oxadiazol-3-yl)-6-methyl-1,2,4,5-tetrahydro-3H-3-benzazepin-3-yl]-N-[(2S)-2-hydroxypropyl]acetamide] are at most 100 nM and at most 10 nM.
For the compound `COCCN1CCc2c(ccc(-c3noc(-c4ccc(OC(C)C)c(C#N)c4)n3)c2C)C1` [Example 9, 2-[(1-Methylethyl)oxy]-5-(3-{5-methyl-2-[2-(methyloxy)ethyl]-1,2,3,4-tetrahydro-6-isoquinolinyl}-1,2,4-oxadiazol-5-yl)benzonitrile], the concentration giving a half-maximal response (EC50) in assay [1] and in assay [2] was at most 100 nM throughout.
For the compound `Cc1c(-c2noc(-c3ccc(OC(C)C)c(C#N)c3)n2)ccc2c1CCN(CC(=O)N[C@@H](C)CO)CC2` [Example 158, 2-[7-(5-{3-cyano-4-[(1-methylethyl)oxy]phenyl}-1,2,4-oxadiazol-3-yl)-6-methyl-1,2,4,5-tetrahydro-3H-3-benzazepin-3-yl]-N-[(1S)-2-hydroxy-1-methylethyl]acetamide], the EC50 in assay [1] was at most 100 nM; in assay [2], at most 10 nM.
On to `CC(C)Oc1ccc(-c2nc(-c3ccc4c(c3)CCN(C(=O)CN3CC(O)C3)CC4)no2)cc1C#N` [Example 106, 5-(3-{3-[(3-hydroxy-1-azetidinyl)acetyl]-2,3,4,5-tetrahydro-1H-3-benzazepin-7-yl}-1,2,4-oxadiazol-5-yl)-2-[(1-methylethyl)oxy]benzonitrile hydrochloride], for which the figures for the EC50 in assay [1] and in assay [2] were at most 1000 nM and at most 100 nM, respectively.
With `Cc1c(-c2noc(-c3cnc(OC(C)C)c(C#N)c3)n2)ccc2c1CCN(C(=O)[C@@H](N)[C@@H](C)O)C2` [Example 79, 2-[(1-methylethyl)oxy]-5-[3-(5-methyl-2-L-threonyl-1,2,3,4-tetrahydro-6-isoquinolinyl)-1,2,4-oxadiazol-5-yl]-3-pyridinecarbonitrile hydrochloride], the EC50 in assay [1] is at most 100 nM; in assay [2], at most 10 nM.
For the compound `CCOc1ncc(-c2nc(-c3ccc4c(c3)CCN(C[C@H](O)CO)CC4)no2)cc1C#N` [Example 116, 5-(3-{34[(2S)-2,3-dihydroxypropyl]-2,3,4,5-tetrahydro-1H-3-benzazepin-7-yl}-1,2,4-oxadiazol-5-yl)-2-(ethyloxy)-3-pyridinecarbonitrile], the EC50 in assay [1] was at most 1000 nM; in assay [2] it was at most 100 nM.
For `Cc1c(-c2noc(-c3ccc(OC(C)C)c(C#N)c3)n2)ccc2c1CCN(C[C@@H](O)CO)C2` [Example 73, 5-(3-{2-[(2R)-2,3-dihydroxypropyl]-5-methyl-1,2,3,4-tetrahydro-6-isoquinolinyl}-1,2,4-oxadiazol-5-yl)-2-[(1-methylethyl)oxy]benzonitrile hydrochloride], the EC50 in assay [1] was at most 100 nM; in assay [2] it was at most 10 nM.
In the same order, the values of `CC(C)Oc1ccc(-c2nc(-c3cccc4c3CCN(CC(O)CO)C4)no2)cc1C#N` (centres unmarked) [Example 76, 5-{3-[2-(2,3-dihydroxypropyl)-1,2,3,4-tetrahydro-5-isoquinolinyl]-1,2,4-oxadiazol-5-yl}-2-[(1-methylethyl)oxy]benzonitrile] are at most 10 nM and at most 10 nM.
The matching figures for `Cc1c(-c2noc(-c3ccc(OC(C)C)c(C#N)c3)n2)ccc2c1CCN(C[C@H](O)CO)C2` [Example 71, 5-(3-{2-[(2S)-2,3-dihydroxypropyl]-5-methyl-1,2,3,4-tetrahydro-6-isoquinolinyl}-1,2,4-oxadiazol-5-yl)-2-[(1-methylethyl)oxy]benzonitrile hydrochloride]: at most 100 nM and at most 100 nM.
Turning to `CC(C)Nc1ncc(-c2nc(-c3ccc4c(c3)CCN(C[C@H](O)CO)CC4)no2)cc1C#N` [Example 114, 5-(3-{3-[(2S)-2,3-dihydroxypropyl]-2,3,4,5-tetrahydro-1H-3-benzazepin-7-yl}-1,2,4-oxadiazol-5-yl)-2-[(1-methylethyl)amino]-3-pyridinecarbonitrile], the EC50 in assay [1] was at most 1000 nM; in assay [2], at most 100 nM.
Compound `Cc1c(-c2noc(-c3ccc(OC(C)C)c(Cl)c3)n2)ccc2c1CCN(CC(=O)NC(CO)CO)C2` [Example 193, 2-[6-(5-{3-chloro-4-[(1-methylethyl)oxy]phenyl}-1,2,4-oxadiazol-3-yl)-5-methyl-3,4-dihydro-2(1H)-isoquinolinyl]-N-[2-hydroxy-1-(hydroxymethyl)ethyl]acetamide hydrochloride] had an EC50 in assay [2] of at most 10 nM.
